{
  "source": "patent US7901712B2",
  "about": "“Gliclazide nanosphere and manufacturing method therefor and application thereof” (Kaoshiung Medical University, priority 2006, dated 2011)",
  "key": {"[1]": {"test": "Particle size measurement by photon correlation spectroscopy", "format": "physicochemical", "details": "PCS, diluted in ethylene glycol, n = 3", "method": "The average particle size of GL nanoparticles, GL solid complexes, the β-CD and the gliclazide pure drug were measured by the method of photon correlation spectroscopy (PCS) using Malvern Zetasizer 3000HSA (Malvern Worcestershire, UK). Prior to measurements, about 50 mg of each sample were diluted with 100 ml of ethylene glycol. The sizes of the above-mentioned four particle distributions were estimated by setting the intensity of the scattered light at λ=750 nm and the scattering angle at θ=90°. The background medium, i.e. the ethylene glycol (η=16.1 mPa·s) with the refractive index thereof being 1.431."}, "[2]": {"test": "In vitro dissolution test, USP 24 paddle apparatus", "format": "physicochemical", "details": "37°C; for DP (dissolved percentage): deionized water", "method": "According to the USP 24 paddle apparatus, in vitro dissolution tests are performed with Hanson SR8 Plus (Chatsworth, USA). Three samples containing 80 mg of GL pure drug, GL solid complexes with an equivalent amount of GLs and GL nanospheres with an equivalent amount of GLs are poured separately into 900 ml deionized water at 37±0.5° C. with stirring rate at 100 rpm. Afterwards, 0.2 ml of each sample was withdrawn respectively at 1, 3, 5, 10, 15, 30, 60 and 120 min by the Waters transfer module (Milford, USA). Subsequently, the concentration of the samples was assayed using the HPLC method. The dissolution profiles are evaluated by the dissolution efficiency (DE) parameter (Khan, 1975) and the dissolved percentage (DP). The DE of GL pure drug, GL nanospheres and GL solid complex are calculated from the following equation (3).\nwherein, y represents the percentage of dissolved product;\nt1 and t2 represents the two different time points\ny100 represents the maximum percentage of the dissolved sample"}, "[3]": {"details": "5 min, 900 ml deionized water, 100 rpm, 80 mg GL equivalent, n = 6"}, "[4]": {"details": "30 min, 900 ml deionized water, 100 rpm, n = 6"}, "[5]": {"details": "60 min, 900 ml deionized water, 100 rpm, n = 6"}},
  "data": [
    {"smiles": "Cc1ccc(S(=O)(=O)NC(=O)NN2CC3CCCC3C2)cc1", "note": "(stereo not shown) [GL]", "values": [
      {"measurement": "Mean size ± S.D.", "setting": "[1]", "value": "47.56 ± 2.11", "unit": "μm"},
      {"measurement": "DE5 (dissolution efficiency)", "setting": "[2]; [3]", "value": 0.0129},
      {"measurement": "DP5 (dissolved percentage)", "setting": "[2]; [3]", "value": 1.44},
      {"measurement": "DE30 (dissolution efficiency)", "setting": "[2]; [4]", "value": 0.0229},
      {"measurement": "DP30 (dissolved percentage)", "setting": "[2]; [4]", "value": 3.84},
      {"measurement": "DE60 (dissolution efficiency)", "setting": "[2]; [5]", "value": 0.0416},
      {"measurement": "DP60 (dissolved percentage)", "setting": "[2]; [5]", "value": 8.23},
      {"measurement": "DP (dissolved percentage)", "setting": "[2]; after 60 minutes", "value": 8.23, "unit": "%"},
      {"measurement": "DP (dissolved percentage)", "setting": "[2]; after five minutes", "value": 1.44, "unit": "%"}
    ]},
    {"smiles": "OC[C@H]1O[C@@H]2O[C@H]3[C@H](O)[C@@H](O)[C@@H](O[C@H]4[C@H](O)[C@@H](O)[C@@H](O[C@H]5[C@H](O)[C@@H](O)[C@@H](O[C@H]6[C@H](O)[C@@H](O)[C@@H](O[C@H]7[C@H](O)[C@@H](O)[C@@H](O[C@H]8[C@H](O)[C@@H](O)[C@@H](O[C@H]1[C@H](O)[C@H]2O)O[C@@H]8CO)O[C@@H]7CO)O[C@@H]6CO)O[C@@H]5CO)O[C@@H]4CO)O[C@@H]3CO", "note": "[β-CD]", "values": [
      {"measurement": "Mean size ± S.D.", "setting": "[1]", "value": "161.03±3.12", "unit": "μm"}
    ]}
  ]
}
